Measured values published in publication PMC8291583, “Design, synthesis, and evaluation of 3,7-substituted coumarin derivatives as multifunctional Alzheimer’s disease agents” (Journal of Enzyme Inhibition and Medicinal Chemistry, 2021).
Where two headings read alike, the source gives them in different places.

Experiments:
BuChE from equine serum = biological target: T1, BuChE from equine serum (Equus caballus, UniProt P81908); assay: biochemical
T1 construct: 12 U/ml BuChE from equine serum; from tissue; host or cells: equine serum
Experimental: Cholinesterase activity is determined using a modified colorimetric method first described by Ellman[40]. […] The stock was then further diluted by factors of ten to produce solutions of 1 mM, 100 µM, 10 µM, 1 µM, and 0.1 µM which corresponds to concentrations of 100 µM, 10 µM, 1 µM, 0.1 µM, and 0.01 µM in the final reaction mixture. The test concentrations were stored in the refrigerator until the day of the assay. Trisma HCl buffer (50 mM, adjusted to pH 8 with 2 N NaOH) was prepared as the buffer and used to prepare enzyme stock solution (22 U/ml for Electrophorus electricus AChE and 12 U/ml BuChE from equine serum), 15 mM acetylthiocholine iodide, 15 mM S-butyrylthiocholine iodide and 1.5 mM DTNB (Ellman’s reagent). The enzyme stock solution was stabilised with 1% bovine serum albumin and stored in aliquots at −80 °C. A clear, flat bottom 96 well plate was used to perform the experiments with each concentration performed in triplicate. Prior to the assay the background absorbance for each compound at the different test concentrations was measured and accounted for when reading the final absorbance. […] Following this, 30 µl of the substrate was added to each well simultaneously using a multi pipette. […] A one-sample t-test was performed on the data to test for statistical significance.

[1] = tested on: SH-SY5Y neuroblastoma cells; assay: MTT cytotoxicity assay; format: cell-based, human; details: 48 h
Experimental: The human neuroblastoma SH-SY5Y cells were generously donated by collaborators from the Blackburn Laboratory, University of Cape Town. Cells were cultured in monolayer in Dulbecco’s Modified Eagle Medium (DMEM, Gibco, Life Technologies Corporation UK), supplemented with 10% foetal bovine serum (FBS, Gibco, Life Technologies Corporation, Paisley, UK), 100 U/ml penicillin, and 100 µg/ml streptomycin (Lonza Group Ltd., Verviers Belgium). Cultures were incubated at 37 °C in a humidified atmosphere with 5% CO2. The growth medium was replaced every 3 days and cells were sub-cultured when they attained 70 to 80% confluency using a solution of 0.25% trypsin EDTA (Lonza Group Ltd., Verviers, Belgium).
SH-SY5Y cells were plated in growth medium in the flat bottom 96 well plates at a density of approximately 7500 cells/well. The cells were allowed to adhere to the plate surface for 24 h and following this their media were replenished with fresh media containing the test compounds at 10 µM, 50 µM and 100 µM concentrations dissolved in DMSO. Vehicle control cells were treated with DMSO, at a concentration similar to that of the highest concentration of the test compounds. Following an incubation period of 48 h, 10 µl of MTT solution (5 mg/ml) was added to each well. This was further incubated for 4 h and the formazan formed was solubilised with 100 µl of DMSO. The plates were read using a BMG Labtech Omega® POLARStar plate reader spectrophotometer (Ortenberg, Germany) to determine the absorbance recorded at a wavelength of 570 nm. The percentage cell viability was calculated relative to the vehicle control using the following formula: Cellviability%=(Absorbanceoftreatedwell/Absorbanceofuntreatedwell)×100 [drawing 1]

[2] = tested on: Aβ 25–35 treated SH-SY5Y cells; assay: Amyloid-beta 25–35 induced neurotoxicity (MTT); format: cell-based, human; details: 10 µM to 100 µM compound, Aβ 25–35 20 µM, 24 h
Experimental: Human neuroblastoma cells (SH-SY5Y) were grown in a culture medium (DMEM/F-12) and supplemented with 10% foetal bovine serum. Prophylactically, 1% v/v of penicillin/streptomycin was added to the medium. Cells were maintained by incubation at 37 °C with 5% carbon dioxide. All experiments were performed by seeding the cells into 24-well plates. Once confluent, the cells were then pre-treated with compounds 6 and 7 (10 µM) for 1 h, followed by Aβ 25–35 addition (20 µM) and incubated for 24 h. The untreated control cells were treated with DMEM which contained DMSO and were incubated in the same manner as the treated cells. […] The level of significance was analysed using One-way ANOVA statistical analysis and expressed using the p-value.
The accumulation of extracellular Aβ plaques has been marked as one of the pathological hallmarks of neurotoxicity associated with AD[59–61] and coumarin moieties have previously shown to inhibit Aβ plaque formation and Aβ induced neurotoxicity[62]^,[63]. To further explore the neuroprotective potential of the propargylamine-containing coumarin derivatives 6 and 7, their ability to curb neurotoxicity induced by the amyloid-β (Aβ) protein was thus assessed according to the method described in the experimental section. […]

recombinant human MAO-B = recombinant human MAO-B (Homo sapiens, UniProt P27338); format: biochemical; details: preincubation 0-60 min, inhibitor about twofold IC50
Experimental: The concentration of inhibitor in these incubations was approximately twofold the measured IC50 value for the inhibition of the MAO-B enzyme. Potassium phosphate buffer (100 mM, pH 7.4, made isotonic with NaCl) was used as the incubation medium. A final concentration of 30 hx00B5;M kynuramine for MAO-B was then added to the preincubated enzyme preparations and the resulting 250 µl reactions were incubated at 37 °C for 15 min. The reactions were terminated with the addition of 200 µl NaOH (2 N) and a volume of 600 µl distilled water was added to each reaction. The fluorescence of the MAO-B generated 4-hydroxyquinoline in the supernatant fractions were measured using a fluorescent microplate reader at an excitation wavelength of 310 nm and an emission wavelength of 400 nm. Time-dependent graphs were plotted against the relative fluorescent unit readings (RFU).
To determine the binding mode of the studied compounds on MAO-B, the time dependency of enzyme inhibition was measured. If the compounds form a covalent or irreversible adduct with the enzyme, a time-dependent reduction of enzyme activity would be expected. […] For this purpose, the concentrations of the test compounds chosen were approximately twofold the measured IC50 values for the inhibition of the respective enzymes.

[3] = Ellman method, 25 °C, pH 8, read-out: BuChE IC50

T1 sequence (P81908 whole entry): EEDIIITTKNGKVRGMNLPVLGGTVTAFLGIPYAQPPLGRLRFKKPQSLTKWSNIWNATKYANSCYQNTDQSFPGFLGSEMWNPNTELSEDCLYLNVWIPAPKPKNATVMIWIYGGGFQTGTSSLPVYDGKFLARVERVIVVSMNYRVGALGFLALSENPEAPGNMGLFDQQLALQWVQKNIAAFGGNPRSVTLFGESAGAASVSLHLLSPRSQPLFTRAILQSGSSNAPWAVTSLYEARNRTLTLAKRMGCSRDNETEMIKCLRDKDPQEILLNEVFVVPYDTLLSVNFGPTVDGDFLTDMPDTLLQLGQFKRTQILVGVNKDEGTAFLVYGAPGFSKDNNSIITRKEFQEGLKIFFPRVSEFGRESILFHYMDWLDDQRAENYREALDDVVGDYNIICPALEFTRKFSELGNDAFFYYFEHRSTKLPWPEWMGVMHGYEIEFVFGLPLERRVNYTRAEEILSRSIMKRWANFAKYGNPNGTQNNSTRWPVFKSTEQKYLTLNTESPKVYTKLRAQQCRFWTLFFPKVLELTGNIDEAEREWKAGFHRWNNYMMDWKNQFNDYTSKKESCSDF
recombinant human MAO-B, sequence (P27338 whole entry): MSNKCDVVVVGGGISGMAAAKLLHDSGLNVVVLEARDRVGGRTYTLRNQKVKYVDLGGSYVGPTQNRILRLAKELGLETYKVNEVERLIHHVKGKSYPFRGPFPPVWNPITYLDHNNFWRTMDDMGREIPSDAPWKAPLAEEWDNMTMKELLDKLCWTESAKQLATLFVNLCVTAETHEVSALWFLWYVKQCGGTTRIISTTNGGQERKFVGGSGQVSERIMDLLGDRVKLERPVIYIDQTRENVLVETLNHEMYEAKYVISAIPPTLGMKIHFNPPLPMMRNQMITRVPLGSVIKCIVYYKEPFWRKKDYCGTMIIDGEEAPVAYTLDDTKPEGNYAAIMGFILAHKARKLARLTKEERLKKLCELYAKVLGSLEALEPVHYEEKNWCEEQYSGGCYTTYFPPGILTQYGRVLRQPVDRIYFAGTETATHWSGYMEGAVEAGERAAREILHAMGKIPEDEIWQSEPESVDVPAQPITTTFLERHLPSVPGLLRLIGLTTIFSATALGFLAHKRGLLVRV

SMILES | IC50 (BuChE from equine serum; [3]) [µM] | cell survival (MTT) ([1]; 50 µM) [%] | cell survival (MTT) ([1]; 100 µM) [%] | IC50 (BuChE from equine serum) [µM] | neuroprotection against Aβ 25–35 cytotoxicity [2] | mode of MAO-B inhibition (time dependency) (recombinant human MAO-B)
CCN(CC)C(=O)Oc1ccc2cc(CBr)c(=O)oc2c1 [Compound 5, 3-(bromomethyl)-2-oxo-2H-1-benzopyran-7-yl-diethylcarbamate] | 23.3 | 0 | 0 | – | – | –
C#CCNCc1cc2ccc(OC(=O)N(CC)CC)cc2oc1=O [Compound 7, 2-oxo-3-{[(prop-2-yn-1-yl)amino]methyl}-2H-1-benzopyran-7-yl-diethylcarbamate] | – | – | – | > 100 | did not show any significant ability to mitigate the cytotoxic effects | reversible inhibitors of MAO-B
O=c1oc2cc(OCCc3ccccc3)ccc2cc1CBr [Compound 4, 3-(bromomethyl)-7-(2-phenylethoxy)-2H-1-benzopyran-2-one] | > 100 | 65 | 7 | – | – | –
C#CCNCc1cc2ccc(OCCc3ccccc3)cc2oc1=O [Compound 6, 7-(2-phenylethoxy)-3-{[(prop-2-yn-1-yl)amino]methyl}-2H-1-benzopyran-2-one] | > 100 | – | – | – | did not show any significant ability to mitigate the cytotoxic effects | reversible inhibitors of MAO-B
